What was measured:
Format in all cases: cell-based
human GLP1R (hGLP1R) [1] = target: T1, human GLP1R (hGLP1R) (Homo sapiens, UniProt P43220); assay: Human GLP1R β-arrestin recruitment assay (PathHunter); set-up: insert synthesized by GeneArt 93-0164 (cells); 93-0491 (vector bundle); details: CHO-hGLP1R-β-arrestin cells; for EC50: mean n=2, read-out: Beta-Arrestin assay EC50 Mean; for Emax: relative to GLP1(7-36), read-out: Beta-Arrestin assay Emax
Experimental: (§1) Compounds 1 to 31 were tested in the following cellular assays that measure the intracellular cAMP concentration, beta-arrestin recruitment and receptor internalization. The cAMP is generated by the activation of GLP1R. The cAMP data obtained is shown in Table 1 (where S.E.M. is included, mean n=3 independent experiments+/−S.E.M). Beta-arrestin is recruited upon activation of GLP1R and the data obtained are shown in Table 2 (mean n=2 independent experiments, +/−S.D). The extent to which the GLP1R is internalized into the cell and away from the plasma membrane following activation is also shown in Table 2 (mean n=2 independent experiments, +/−S.D). EC50 for each assay is defined as the concentration of the compound that leads to half of the maximum response (after baseline correction). Emax is defined as the maximum response observed for the test compound, normalized to the maximum response observed for the endogenous ligand (GLP1(7-36)) to GLP1R.
The extent to which agonists recruited β-arrestin was measured using the PathHunter® β-arrestin assay (DiscoverX). This assay measures binding of β-arrestin to the receptor using an enzyme complementation approach. […] When β-arrestin is recruited to the receptor the enzyme becomes active and generates luminescence in the presence of a chemiluminescent substrate (PathHunter® Detection Kit, DiscoverX cat #93-0001). Luminescence can be measured on a relevant detector. CHO-hGLP1R-β-arrestin cells stably overexpressing hGLP1R with Prolink tag and β-arrestin with EA tag were seeded at 20 μL per well in white 384-well poly-D-Lysine coated plates (Greiner Bio One, cat #781945) in Plating Reagent 2 (DiscoverX, cat #93-0563R2A), and incubated overnight at 37° C., 5% CO2 with humidity. The following day, agonists were prepared at 5 times the final required concentration. To generate triplicate dose response curves, compounds were serially diluted 3-fold in assay buffer (HBSS, 10 mM Hepes and 0.1% BSA), then added to the cell assay plate to a final volume of 25 μL and final top concentrations starting at 30 μM. In the same plate and assay buffer as the tested compounds, were EC100 control wells containing GLP1 (7-36) peptide (Bachem, cat #H-6795) at a final concentration of 1 μM and also EC0 control wells containing no compound. The plate was incubated at 37° C., 5% CO2 with humidity for 2 h after adding the compounds to the cells. Then the detection reagent was prepared (19 parts cell assay buffer, 5 parts substrate reagent 1 and 1 part substrate reagent 2 as per manufacturers recommendations, DiscoverX cat #93-0001), and 12 μL were added per well to the cell assay plate. The plate was incubated for an additional hour in the dark at RT. Luminescence was then measured with an Envision 2104 Multilabel reader with “TRF Light Unit, 337 nm” (Perkin Elmer) using the Ultra-Sensitive protocol setting “384-well US luminescence detector” with the 384-well luminescence aperture, 0.1 sec per well. β-arrestin recruitment was calculated and expressed as percent of the GLP1 (7-36) EC100 control wells: [(sample signal−mean EC0 signal)/(mean EC100 of GLP1 (7-36) signal−mean EC0 signal)]*100 using Microsoft Excel. Curve fitting for EC50 determinations was performed using GraphPad Prism. The 4-parameter logistic model, Hill slope was used: Y=Bottom+(Top−Bottom)/(1+10^((Log EC50−X)*Hill Slope)), where Y is the functional response; X is the compound concentration; bottom is A0 or the minimum value (at 0 dose); top is Ainf or the maximum value (at infinite dose); EC50 is the point of inflection (i.e. the point on the sigmoid shaped curve halfway between A0 and Ainf). The EC50 value was calculated in μM. Emax is the maximal activity detected within the concentration range, derived from the fitted curve relative to GLP1(7-36). […]

human GLP1R (hGLP1R) [2] = target: T1, human GLP1R (hGLP1R); assay: Human GLP1R cAMP agonist assay (GloSensor); details: HEK293-SNAP-hGLP1R-GloSensor cells
Procedure, shortened: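 HEK293 cells stably expressing SNAP-tagged hGLP1R and the GloSensor-22F cAMP luciferase biosensor, pre-loaded 2 h with substrate, then exposed 12 min at rt to compound (30–0.06 μM, 0.5 mM IBMX, 0.1% BSA). Luminescence normalized to 2 nM GLP1(7-36); EC50 and Emax from 4-parameter logistic fit.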

human GLP1R = human GLP1R (Homo sapiens, UniProt P43220); assay: Human GLP1R DERET internalization assay; details: HEK293-SNAP-hGLP1R-GloSensor cells
Experimental: as §1
The extent to which agonists internalize the human GLP1R was determined based on an optimized version of a RealTime FRET-based ‘DERET’ (Dissociation Enhanced Resonance Energy Transfer) assay. The technology relies on labeling of the SNAP-tagged GPCR with a SNAP-Lumi-Terbium (donor fluorophore, Cisbio, cat #SSNPTBD). The compounds are incubated with the cells over-expressing the GPCR of interest in the presence of an excess of fluorescein (acceptor fluorophore). When the GPCR is on the cell surface, the donor signal is quenched by the acceptor and the donor/acceptor ratio is low. As the GPCR internalizes, the donor signal is no longer quenched, and the acceptor is no longer excited so the donor/acceptor ratio increases.
HEK293-SNAP-hGLP1R-GloSensor cells (stably overexpressing SNAP-tagged hGLP1R) were seeded overnight in white 384-well poly-D-Lysine coated plates (Greiner Bio One, cat #781945) in regular DMEM growth medium (Gibco, cat #11965-092, 10% heat-inactivated FBS, 10 mM HEPES, 1× penicillin/streptomycin, 0.5 mg/mL geneticin (Gibco, cat #10131-035) and 0.25 mg/mL hygromycin B (Invitrogen, cat #10687010). On the assay day, cell medium was removed and 100 nM SNAP-Lumi-Tb reagent was added in Opti-MEM solution. The cells were incubated at 37° C. for 1 h. Cells were washed using a plate washer in assay buffer [1×HBSS (10× Gibco, cat #14065-056), 20 mM Hepes (Gibco, cat #15630-080), 1 mM CaCl2 (Fluka, cat #21114-1L), 1 mM MgCl2 (Ambion, cat #AM9530G) pH7.4], and 20 μL buffer with 0.1% BSA was added to each well. After leaving cells to equilibrate for ˜15 min at 37° C., 10 μL of Fluorescein (sodium salt, Sigma, cat #F6377, diluted in buffer) was added at 25 μM final concentration. To generate triplicate dose response curves, compounds were serially diluted 3-fold in assay buffer, then added to the cell assay plate to a final volume of 40 μL and final top concentrations starting at 30 μM. In the same plate and assay buffer as the tested compounds, a GLP1 (7-36) peptide (Bachem, cat #H-6795) control curve was included at a final top concentration of 1 μM in order to establish EC100. EC0 wells with buffer only were also included. The plate FRET fluorescence was measured immediately using a Perkin Elmer Envision with LANCE/DELFIA D400 single mirror, excitation filter X320, and emission filters M615_203 (donor emission) and M515 (acceptor emission), and then measured every 30 min. […] Plates were kept at 37° C. between reads. Data was expressed as the ratio of donor/acceptor emissions using Microsoft Excel and plotted in GraphPad Prism. In order to determine EC50 and Emax for internalization, data was calculated and expressed as percent of the GLP1 (7-36) EC100 control wells: [(sample signal−mean EC0 signal)/(mean EC100 of GLP1 (7-36) signal−mean EC0 signal)]*100 using Microsoft Excel. Curve fitting for EC50 determinations was performed using GraphPad Prism. The 4-parameter logistic model, Hill slope was used:
Y=Bottom+(Top−Bottom)/(1+10^((Log EC50−X)*Hill Slope)), […]

T1 sequence (P43220 24-463): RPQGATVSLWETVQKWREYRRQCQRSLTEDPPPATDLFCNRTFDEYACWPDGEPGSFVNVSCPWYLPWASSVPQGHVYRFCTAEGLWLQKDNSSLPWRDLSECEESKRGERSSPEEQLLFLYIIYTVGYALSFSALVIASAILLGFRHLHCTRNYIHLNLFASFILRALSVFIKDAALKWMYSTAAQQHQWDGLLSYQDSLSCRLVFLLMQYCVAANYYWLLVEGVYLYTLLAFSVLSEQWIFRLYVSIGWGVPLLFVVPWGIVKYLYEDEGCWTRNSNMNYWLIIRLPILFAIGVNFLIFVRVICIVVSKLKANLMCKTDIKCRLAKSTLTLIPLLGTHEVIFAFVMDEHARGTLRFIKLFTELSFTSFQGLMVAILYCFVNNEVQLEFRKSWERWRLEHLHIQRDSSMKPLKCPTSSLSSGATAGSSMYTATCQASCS
human GLP1R, sequence (P43220 24-463): as above

SMILES | EC50 (human GLP1R (hGLP1R) [1]) [nM] | Emax (human GLP1R (hGLP1R) [1]) [%] | Emax (human GLP1R (hGLP1R) [2]; cAMP, normalized to GLP1(7-36) maximum response, read-out: Emax mean) [%] | EC50 (human GLP1R (hGLP1R) [2]; intracellular cAMP, mean n=3 where SEM is given) [nM] | EC50 (human GLP1R; mean n=2) [nM] | Emax (human GLP1R; relative to GLP1(7-36)) [%]
Cc1nc(CN2CCC(c3cccc4c3O[C@@](C)(c3ccc(Cl)cc3F)O4)CC2)n(C[C@@H]2CCO2)c1C(=O)O [Compound C-3, 2-((4-((S)-2-(4-chloro-2-fluorophenyl)-2-methylbenzo[d][1,3]dioxol-4-yl)piperidin-1-yl)methyl)-4-methyl-1-(((S)-oxetan-2-yl)methyl)-1H-imidazole-5-carboxylic acid] | > 30000 | 0 | 108 | 1.65 | – | –
C[C@]1(c2ccc(Cl)cc2F)Oc2cccc(C3CCN(Cc4nc5ccc(C(=O)O)cc5n4C[C@@H]4CCO4)CC3)c2O1 [Reference compound, 2-((4-((S)-2-(4-chloro-2-fluorophenyl)-2-methylbenzo[d][1,3]dioxol-4-yl)piperidin-1-yl)methyl)-1-(((S)-oxetan-2-yl)methyl)-1H-benzo[d]imidazole-6-carboxylic acid, reference compound] | 123 | 27 | – | – | 15 | 87

— patent US20240182456A1, “2-((4-((S)-2-(4-CHLORO-2-FLUOROPHENYL)-2-METHYLBENZO[D][1,3]DIOXOL-4-YL)PIPERIDIN-1-YL)METHYL)-1-(((S)-OXETAN-2-YL)METHYL)-1H-IMIDAZOLE DERIVATIVES AS ACTIVATORS OF THE GLP1 RECEPTOR FOR THE TREATMENT OF OBESITY” (Novartis AG, priority 2021, published 2024)
